# Source: US9662305B2 (REVIVE THERAPEUTICS INC., priority 2012, dated 2017)
# Columns and labels:
# hyperuricaemic mice = assay: Hyperuricaemic (potassium oxonate) mice: serum and urinary uric acid, urinary creatinine; type: in vivo, mouse
# Description: A total of 45 C57/Black 6 mice in 9 groups (n=5) were studied for a period of one week. The drugs were dissolved or dispersed in distilled water immediately prior to dosing and administered in a volume of 15 mL/kg by gastric gavage. The volume of drug administered was based on the body weight determined on the day of dosing. […] Whole blood and urine samples were collected 1 h after final drug administration on the seventh day. […] The serum and urine were stored at −80° C. until assayed. The uric acid levels in serum and urine were determined by the phosphotungstic acid method.^54 The creatinine levels in serum were determined spectrophotometrically using standard diagnostic kits.
# patients = conditions: febuxostat 80 mg/day; cited from earlier work
# [1] = tested on: mouse peritoneal macrophages; assay: MSU crystal-induced cytokine release from mouse peritoneal macrophages
# Description: Male C57/BL/6 mice were injected intraperitoneally with 4% thioglycollate solution and the macrophages collected by peritoneal lavage 3 days later.^57 The cells were plated at a density of 7×10^5 cells in 12-well dishes and non-adherent cells were removed after 3 hours. The cells were cultured in RPMI containing 10% FCS, sodium pyruvate, penicillin/streptomycin and L-glutamine. […] The concentration of IL-1β in the supernatant was determined with an R&D systems Quantikine mouse immunoassay.
# Male C57/BL/6 mice = assay: Monosodium urate crystal-induced peritoneal inflammation in mice; type: in vivo, mouse; conditions: for decrease of mean neutrophil influx for every increase of 1 μmol/kg of the drug: single drug i.p., MSU crystals 0.5 mg i.p., logarithmic model
# Description: Colchicine was dissolved in PBS and administered at a dose of 0.05, 0.5 and 5 μmol/kg in a similar fashion. […] The mice were euthanised after 6 hours with CO2 and the peritoneal cells removed by lavage with 10 mL of cold PBS. The lavage fluid was analysed for neutrophil infiltration using a cytospin and Diff-Quick staining. The concentrations of IL-1β and IL-6 in the lavage supernatants was determined using an R&D Systems Quantikine mouse immunoassay.
# [2] = tested on: subjects with acute gout flares; assay: Open-label, active-controlled clinical trial in acute gout flares; conditions: for proportion of subjects with ≧50% reduction in target joint pain score from baseline at 72 hours post-dose: PI-NRS
# Description: The primary efficacy endpoint is the proportion of patients who responded to treatment. Treatment responders are defined as a ≧50% reduction in target joint pain score from baseline at 72 hours post-dose without using rescue drug. The target joint pain score is an 11-point Pain Intensity Numeric Rating Scale (PI-NRS) used to assess joint pain intensity while experiencing a gout flare on a scale from 0 (no pain) to 10 (worst possible pain).
# THP-1 cells = THP-1 cells stimulated with lipopolysaccharide; cited from earlier work
smiles,measurement,setting,value
Oc1ncnc2[nH]ncc12 [allopurinol],effect on serum urate,"hyperuricaemic mice; allopurinol 5 mg/kg/day, 7 days, to a level below normal baseline",highly significant (p<0.001) drop in serum urate
same,effect on urinary uric acid,"hyperuricaemic mice; allopurinol 5 mg/kg/day, level still below normal baseline",highly significant (p<0.001) increase in urinary uric acid
Cc1nc(-c2ccc(OCC(C)C)c(C#N)c2)sc1C(=O)O [febuxostat],patients who previously failed to normalise uric acid levels (<360 μmol/L) on allopurinol and also failed,patients,59%
COc1cc2c(c(OC)c1OC)-c1ccc(OC)c(=O)cc1[C@@H](NC(C)=O)CC2 [colchicine],decrease of average MSU crystal-induced IL-1β production for every increase of 1 μmol/kg,"[1]; colchicine alone, logarithmic model",29.6%
same,decrease of mean neutrophil influx for every increase of 1 μmol/kg of the drug,Male C57/BL/6 mice; 6 hours,18.3%
same,proportion of subjects with ≧50% reduction in target joint pain score from baseline at 72 hours post-dose,"[2]; Arm C, 1.8 mg, 5/12 subjects",42%
same,related serious adverse events,"[2]; any of the treatment arms, seven-day treatment period",No related serious adverse events
"CC(C)(S)C(=O)N[C@@H](CS)C(=O)O [bucillamine, N-(2-mercapto-2-methylpropionyl)-L-cysteine]",decrease in average IL-1β cytokine production with each additional 1 μmol/kg increase,"[1]; MSU crystals 50 μg/mL, 6 hours",30.7 pg/mL
same,decrease in average IL-6 cytokine production with each additional 1 μmol/kg increase,"[1]; MSU crystals 50 μg/mL, 6 hours",13.7 pg/mL
same,decrease in average MSU crystal-induced IL-1β production,[1]; addition of bucillamine 10 μmol/kg to colchicine,65.0%
same,increase of mean urinary uric acid for each increase of 1 mg/kg/day,"hyperuricaemic mice; bucillamine alone, 7 days, dose-response slope",0.079 mg/dL
same,reduction of mean serum urate for each increase of 1 mg/kg/day,"hyperuricaemic mice; bucillamine alone, gastric gavage, 7 days, dose-response slope",0.0067 mg/dL
same,"release of TNF-α, IL-1β and IL-8",THP-1 cells,attenuated
same,release of IL-1β and IL-6 into the peritoneal cavity,"Male C57/BL/6 mice; after injection of monosodium urate crystals, mouse",attenuated
same,effect of addition of bucillamine on average neutrophil influx,"Male C57/BL/6 mice; bucillamine 10 μmol/kg added to colchicine, MSU crystals i.p., 6 hours",highly significant (p<0.001) decrease in average neutrophil influx
same,decrease of mean neutrophil influx for every increase of 1 μmol/kg of the drug,Male C57/BL/6 mice; 6 hours,5.15%
same,proportion of subjects with ≧50% reduction in target joint pain score from baseline at 72 hours post-dose,"[2]; Arm A, 900 mg, 2/8 subjects",25%
same,proportion of subjects with ≧50% reduction in target joint pain score from baseline at 72 hours post-dose,"[2]; Arm B, 1,800 mg, 6/9 subjects",67%
same,use of rescue medication,"[2]; Arm B, 1,800 mg, all subjects, seven-day treatment period",completed the treatment period without the use of rescue medication
